Results from ChEMBL document CHEMBL5608246, “Membrane-Targeting Amphiphilic Honokiol Derivatives Containing an Oxazole Moiety as Potential Antibacterials against Methicillin-Resistant Staphylococcus aureus” (J Med Chem, 2024).
Activity calls are given as the source filed them. The calls are words filed in the database; no cut-off is given here.

Assays:
Staphylococcus aureus [1] = experiment: Antibacterial activity against methicillin resistant Staphylococcus aureus 20 incubated for 16 to 18 hrs in presence of 32 ug/ml phosphatidylglycerol by checkerboard broth dilution method; format: functional; conditions: time 16-18 hrs
[2] = Toxicity in Kunming mouse assessed as change in urea level at 20 mg/kg, sc measured after 24 hrs; format: organism-based; conditions: in vivo
Cell membrane [3] = experiment: Induction of membrane disruption in methicillin resistant Staphylococcus aureus 20 assessed as increase in red fluorescence signal incubated for 2 hrs by SYTO9/PI staining based flow cytometry analysis; conditions: dose 8-128 µg/ml
[4] = Toxicity in Kunming mouse assessed as change in red blood cell counts at 20 mg/kg, sc measured after 24 hrs; format: organism-based; conditions: in vivo
Cell membrane [5] = experiment: Induction of membrane depolarization in methicillin resistant Staphylococcus aureus 20 assessed as increase in fluorescence intensity measured at 2 mins interval over 20 mins by DiSC3(5) staining based assay; conditions: dose 16-64 µg/ml
Staphylococcus aureus [6] = experiment: Antibacterial activity against methicillin resistant Staphylococcus aureus M17 incubated for 16 to 18 hrs by broth dilution method; format: functional; conditions: time 16-18 hrs
Cell membrane [7] = experiment: Induction of membrane disruption in methicillin resistant Staphylococcus aureus 20 assessed as viable cells with intact membrane at 16 ug/ml incubated for 2 hrs by SYTO9/PI staining based flow cytometry analysis (reference value: 98.7%); format: cell membranes; conditions: dose 16.0 µg/ml
Staphylococcus aureus [8] = experiment: Antibacterial activity against methicillin resistant Staphylococcus aureus 20 incubated for 16 to 18 hrs in presence of 32 ug/ml cardiolipin by checkerboard broth dilution method; format: functional; conditions: time 16-18 hrs
[9] = Toxicity in Kunming mouse assessed as change in hemoglobin level at 20 mg/kg, sc measured after 24 hrs; format: organism-based; conditions: in vivo
Staphylococcus aureus [10] = experiment: Antibacterial activity against methicillin resistant Staphylococcus aureus 20 infected in Kunming mouse skin abscess model assessed as reduction in TNF-alpha level at 5 to 10 mg/kg, sc measured after 2 hrs by ELISA; format: functional, organism-based; conditions: dose 5-10 mg/kg
Cell membrane [11] = experiment: Induction of membrane disruption in methicillin resistant Staphylococcus aureus 20 assessed as intracellular protein leakage incubated for 4 hrs by microspectrophotometer analysis; format: cell membranes; conditions: dose 2-16 µg/ml
Cell membrane [12] = experiment: Induction of membrane depolarization in methicillin resistant Staphylococcus aureus 20 assessed as fold increase in fluorescence intensity at 32 times MIC measured at 2 mins interval over 20 mins by DiSC3(5) staining based assay relative to control; format: cell membranes
[13] = Toxicity in Kunming mouse assessed as change in hematocrit level at 20 mg/kg, sc measured after 24 hrs; format: organism-based; conditions: in vivo
Staphylococcus aureus [14] = experiment: Antibacterial activity against methicillin resistant Staphylococcus aureus N315 incubated for 16 to 18 hrs by broth dilution method; format: functional; conditions: time 16-18 hrs
Staphylococcus aureus [15] = experiment: Inhibition of protein synthesis in methicillin resistant Staphylococcus aureus N315 at 4 ug/ml incubated for 4 hrs by RNA-sequencing analysis; format: functional, organism-based; conditions: dose 4.0 µg/ml
[16] = Hemolytic activity in sheep RBC incubated for 1 hr; format: toxicity, cell-based, Ovis aries, Erythrocyte; conditions: sheep red blood cells (erythrocytes)
Staphylococcus aureus [17] = experiment: Antibacterial activity against methicillin resistant Staphylococcus aureus 20 infected in Kunming mouse skin abscess model assessed as reduction in bacterial load at 10 mg/kg, sc measured after 2 hrs; format: functional; set-up: scale not given: the % may be the effect or the level left
Staphylococcus aureus [18] = experiment: Antibacterial activity against methicillin resistant Staphylococcus aureus M21 incubated for 16 to 18 hrs by broth dilution method; format: functional; conditions: time 16-18 hrs
Staphylococcus aureus [19] = experiment: Antibacterial activity against methicillin resistant Staphylococcus aureus 20 infected in Kunming mouse skin abscess model assessed as reduction in abscess size at 5 mg/kg, sc measured after 2 hrs; format: functional, organism-based
Cell membrane [20] = experiment: Induction of membrane disruption in methicillin resistant Staphylococcus aureus 20 assessed as viable cells with intact membrane at 8 ug/ml incubated for 2 hrs by SYTO9/PI staining based flow cytometry analysis (reference value: 98.7%); format: cell membranes; conditions: dose 8.0 µg/ml
[21] = Toxicity in Kunming mouse assessed as heart abnormalities at 10 mg/kg, sc measured after 24 hrs; format: organism-based; conditions: in vivo
Staphylococcus aureus [22] = experiment: Antibacterial activity against methicillin resistant Staphylococcus aureus M11 incubated for 16 to 18 hrs by broth dilution method; format: functional; conditions: time 16-18 hrs
L02 = experiment: Cytotoxicity against human L02 cells assessed as reduction in cell viability incubated for 24 hrs by CCK8 assay; format: toxicity, cell-based; conditions: l02, 24 h
Cell membrane [23] = experiment: Induction of membrane disruption in methicillin resistant Staphylococcus aureus 20 assessed as membrane rupture at 16 times MIC incubated for 4 hrs by SEM analysis
[24] = Toxicity in Kunming mouse assessed as lung abnormalities at 10 mg/kg, sc measured after 24 hrs; format: organism-based; conditions: in vivo
Staphylococcus aureus [25] = experiment: Inhibition of proline synthesis in methicillin resistant Staphylococcus aureus N315 at 4 ug/ml incubated for 4 hrs by RNA-sequencing analysis; format: functional, organism-based; conditions: dose 4.0 µg/ml
Staphylococcus aureus [26] = experiment: Antibacterial activity against methicillin resistant Staphylococcus aureus M13 incubated for 16 to 18 hrs by broth dilution method; format: functional; conditions: time 16-18 hrs
Staphylococcus aureus [27] = experiment: Antibacterial activity against methicillin resistant Staphylococcus aureus 20 infected in Kunming mouse skin abscess model assessed as reduction in IL-6 level at 5 to 10 mg/kg, sc measured after 2 hrs by ELISA; format: functional, organism-based; conditions: dose 5-10 mg/kg
Cell membrane [28] = experiment: Induction of membrane disruption in methicillin resistant Staphylococcus aureus 20 assessed as wrinkled membrane at 16 times MIC incubated for 4 hrs by SEM analysis; format: cell membranes
Staphylococcus aureus [29] = experiment: Upregulation of gpsB gene expression in methicillin resistant Staphylococcus aureus N315 at 4 ug/ml incubated for 4 hrs by RNA-sequencing analysis; format: functional; conditions: dose 4.0 µg/ml
[30] = Toxicity in Kunming mouse skin abscess model infected with methicillin resistant Staphylococcus aureus assessed as kidney damage at 5 to 10 mg/kg, sc measured after 2 hrs by H and E staining based assay; format: organism-based; conditions: in vivo, dose 5-10 mg/kg
Cell membrane [31] = experiment: Induction of membrane permeability in methicillin resistant Staphylococcus aureus 20 at 16 to 64 ug/ml measured at 2 mins interval over 20 mins by SYTOX green staining based assay; conditions: dose 16-64 µg/ml
Staphylococcus aureus [32] = experiment: Antibacterial activity against methicillin resistant Staphylococcus aureus M14 incubated for 16 to 18 hrs by broth dilution method; format: functional; conditions: time 16-18 hrs
Staphylococcus aureus [33] = experiment: Antibacterial activity against methicillin resistant Staphylococcus aureus M12 incubated for 16 to 18 hrs by broth dilution method; format: functional; conditions: time 16-18 hrs
Staphylococcus aureus [34] = experiment: Inhibition of enzyme activity in methicillin resistant Staphylococcus aureus N315 at 4 ug/ml incubated for 4 hrs by RNA-sequencing analysis; format: functional, organism-based; conditions: dose 4.0 µg/ml
Cell membrane [35] = experiment: Induction of membrane disruption in methicillin resistant Staphylococcus aureus 20 assessed as viable cells with intact membrane at 32 ug/ml incubated for 2 hrs by SYTO9/PI staining based flow cytometry analysis (reference value: 98.7%); format: cell membranes; conditions: dose 32.0 µg/ml
Staphylococcus aureus [36] = experiment: Antibacterial activity against methicillin resistant Staphylococcus aureus M16 incubated for 16 to 18 hrs by broth dilution method; format: functional; conditions: time 16-18 hrs
Staphylococcus aureus [37] = experiment: Antibacterial activity against Staphylococcus aureus ATCC 29213 after 20 passages incubated for 16 to 18 hrs; format: functional; conditions: time 16-18 hrs
[38] = Toxicity in Kunming mouse skin abscess model infected with methicillin resistant Staphylococcus aureus assessed as lung damage at 5 to 10 mg/kg, sc measured after 2 hrs by H and E staining based assay; format: organism-based; conditions: in vivo, dose 5-10 mg/kg
Staphylococcus aureus [39] = experiment: Effect on ABC transporter protein gene expression in methicillin resistant Staphylococcus aureus N315 at 4 ug/ml incubated for 4 hrs by RNA-sequencing analysis; format: functional; conditions: dose 4.0 µg/ml
[40] = Toxicity in Kunming mouse assessed as liver abnormalities at 10 mg/kg, sc measured after 24 hrs; format: organism-based; conditions: in vivo

C=CCc1cc(-c2ccc(OCCC[N+](C)(C)CC(=O)NCCCC)c(CC=C)c2)c2oc(-c3c(Cl)cccc3Cl)nc2c1.[Br-]
MIC (Staphylococcus aureus [1]): 32 mg/L | Activity [2]: Non-Toxic | Activity (Cell membrane [3]): Dose-Dependent Effect | Activity [4]: Non-Toxic | Activity (Cell membrane [5]): Dose-Dependent Effect | MIC (Staphylococcus aureus [6]): 2 mg/L | Activity (Cell membrane [7]): 0.17% | MIC (Staphylococcus aureus [8]): 32 mg/L | Activity [9]: Non-Toxic | Activity (Staphylococcus aureus [10]): Active | Activity (Cell membrane [11]): Dose-Dependent Effect | fold change (FC) (Cell membrane [12]): 8 | Activity [13]: Non-Toxic | MIC (Staphylococcus aureus [14]): 4 mg/L | inhibition (Staphylococcus aureus [15]): Active | HC50 at 1 h [16]: 218 µg/mL | Activity (Staphylococcus aureus [17]): 96.63% | MIC (Staphylococcus aureus [18]): 4 mg/L | Activity (Staphylococcus aureus [19]): Active | Activity (Cell membrane [20]): 61.6% | Activity [21]: Non-Toxic | MIC (Staphylococcus aureus [22]): 4 mg/L | Activity (L02): Dose-Dependent Effect | Activity (Cell membrane [23]): Active | Activity [24]: Non-Toxic | inhibition (Staphylococcus aureus [25]): Active | MIC (Staphylococcus aureus [26]): 8 mg/L | Activity (Staphylococcus aureus [27]): Active | Activity (Cell membrane [28]): Active | Activity (Staphylococcus aureus [29]): Active | Activity [30]: Non-Toxic | Activity (Cell membrane [31]): Active | MIC (Staphylococcus aureus [32]): 2 mg/L | MIC (Staphylococcus aureus [33]): 4 mg/L | Activity (Staphylococcus aureus [34]): Active | Activity (Cell membrane [35]): 0.33% | MIC (Staphylococcus aureus [36]): 2 mg/L | MIC (Staphylococcus aureus [37]): 2 mg/L | Activity [38]: Non-Toxic | Activity (Staphylococcus aureus [39]): Active | Activity [40]: Non-Toxic
